From patent US20240327384A1, “SALTS AND SOLID STATE FORMS OF A KIF18A INHIBITOR COMPOUND” (Amgen Inc., priority 2021, published 2024)
≈ marks a conversion by molar mass, not a printed value. Read-outs that look alike come from different tables or passages of the source. Marks after values point to notes of the source that are not given here.

How the values were obtained:
[1] = Dog cross-over PK study; assay type: in vivo
Experimental: A total of 3 male dogs were initially assigned to study. All animals were fasted for at least eight hours prior to dosing and through the first four hours of blood sample collection (food was returned within 30 minutes following the collection of the last blood sample at the 4 hour collection interval, if applicable).
Each animal receiver an oral gavage dose (PO) of the appropriate test article solution containing Compound A as outlined in the following study design table. Oral gavage dosing solutions were continuously stirred throughout dosing. The gavage tubes were rinsed with approximately 10 mL of tap water following dosing (prior to removal of the gavage tube). There was a minimum of 10-day washout period between doses for each phase.

[2] = Intrinsic dissolution rate (IDR) test; assay type: physicochemical
[3] = Solubility and powder dissolution in FaSSGF, FaSSIF, FeSSIF, water (Example 44); assay type: physicochemical; settings: for Sol (pH), Water (first value pair after FeSSIF): pH 1.14 (HCl Form 1), pH 1.08 (Variable Hydrate Form 2); for Sol (pH), Water (first value pair after FeSSIF) / Sol (pH), Water (second value pair after FeSSIF): head of medium unclear; for Sol (pH), Water (second value pair after FeSSIF): pH 1.58 (HCl Form 1), pH 1.64 (Variable Hydrate Form 2)
Experimental: Solubilities of various forms of the Compound A and the Compound A-HCl Form 1 were measured in Fasted State Simulated Gastric Fluid (FaSSGF), Fasted State Simulated Intestinal Fluid (FaSSIF), fed state simulated intestinal fluid […], and water.

[4] = Dynamic vapor sorption (moisture sorption, hygroscopicity); assay type: physicochemical; settings: for DVS weight gain: by 95% RH
Experimental: Moisture sorption data was collected using a VTI SGA 100 symmetrical vapor sorption analyzer. A sample size of approximately 5 mg to 10 mg was used in a platinum pan. Hygroscopicity was evaluated from 5% RH to 95% RH in increments of 5% RH. Data for adsorption and desorption cycles were collected. […] Dynamic Vapor Sorption (DVS): Moisture sorption data was collected using a Surface Measurement Systems […] instrument. Equilibrium criteria were set at ±0.001% weight change in 10 minutes with a maximum equilibrium time of 360 minutes.

[5] = biological target: T1, KIF18A (Homo sapiens, UniProt Q8NI77); assay: KIF18A ATPase inhibition; assay type: biochemical
T1 sequence (Q8NI77 1-898): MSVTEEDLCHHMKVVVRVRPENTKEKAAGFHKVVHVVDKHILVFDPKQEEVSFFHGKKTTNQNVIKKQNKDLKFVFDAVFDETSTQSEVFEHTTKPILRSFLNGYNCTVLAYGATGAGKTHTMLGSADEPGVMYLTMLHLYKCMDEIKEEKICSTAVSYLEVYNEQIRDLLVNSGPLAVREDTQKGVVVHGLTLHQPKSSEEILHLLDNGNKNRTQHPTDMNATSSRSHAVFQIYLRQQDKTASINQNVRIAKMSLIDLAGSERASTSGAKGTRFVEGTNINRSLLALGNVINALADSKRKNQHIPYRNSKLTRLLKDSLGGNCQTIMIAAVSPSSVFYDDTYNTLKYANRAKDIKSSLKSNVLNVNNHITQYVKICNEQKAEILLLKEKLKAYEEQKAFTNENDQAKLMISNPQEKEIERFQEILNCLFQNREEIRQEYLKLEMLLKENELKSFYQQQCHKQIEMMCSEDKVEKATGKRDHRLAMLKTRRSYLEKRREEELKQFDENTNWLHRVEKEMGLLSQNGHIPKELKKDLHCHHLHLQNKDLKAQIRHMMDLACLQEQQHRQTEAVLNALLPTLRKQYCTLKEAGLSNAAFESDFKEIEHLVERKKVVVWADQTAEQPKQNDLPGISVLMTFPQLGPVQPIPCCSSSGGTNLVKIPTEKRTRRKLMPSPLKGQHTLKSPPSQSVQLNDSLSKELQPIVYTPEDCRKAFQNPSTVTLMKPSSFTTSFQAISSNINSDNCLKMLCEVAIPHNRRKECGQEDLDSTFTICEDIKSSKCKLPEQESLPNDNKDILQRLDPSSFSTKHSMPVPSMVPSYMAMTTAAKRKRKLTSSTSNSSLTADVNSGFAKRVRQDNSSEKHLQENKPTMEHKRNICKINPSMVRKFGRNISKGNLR

[6] = Solubility in crystallization solvent 80/20 acetone/water; assay type: physicochemical; settings: organic solvent or mixture; 80/20 (v/v) acetone/water, crystallization and slurry aging solvent
Experimental: The process was unseeded and crystal growth occurs during the addition of hydrochloric acid to the Compound A solution. The final slurry was aged at ambient temperature for 10 h, then cooled to 10° C. prior to wet milling. Isolation of the milled material occurred at 10° C. followed by washing of the filter cake with 8 volumes of acetone. The material was dried at 40° C. under vacuum.

[7] = pKa of ionizable groups; assay type: physicochemical
Description: From high-throughput and manual polymorph screening, the present inventors generated various salts, hydrates, solvates, co-crystals of compound A; and a solid form of the Compound A, including crystalline anhydrous forms, salts, hydrates, solvates, and co-crystals thereof. […] Based on the solid-state properties of the free base forms of Compound A, and their inclinations to form solvates, the present inventors generated various salts, hydrates, solvates, and co-crystals of compound A that may be suitable for drug substance scale up and crystallization for pharmaceutical development.

[8] = Solubility and powder dissolution of salts in FaSSIF (Example 46); assay type: physicochemical
Description: All three salts can convert to the free base, but maintain supersaturation in FaSSIF for some time, which indicated a potential good absorption in vivo if used in a pharmaceutical dosage form.

[9] = Polymorph/salt screening: solid form stability, conversion and solubility; assay type: physicochemical
[10] = male dogs, fasted, PO 10 mg/kg, cross-over, listed as Amorphous Cmp A, 10 mg/kg
[11] = male dogs, fasted, PO 10 mg/kg, cross-over, listed as Cmp A-Anhydrous Form 3, 10 mg/kg
[12] = male, dog, plasma, po, 10 mg/kg, male dogs, fasted, cross-over, read-out: Tmax
[13] = pH 1.6, solubility from powder dissolution measurements
[14] = pH 6.5, solubility from powder dissolution measurements
[15] = pH 5.0, solubility from powder dissolution measurements
[16] = male, dog, plasma, po, 10 mg/kg, male dogs, fasted, cross-over

## Cc1cc(NC(=O)c2ccc(NS(=O)(=O)CCO)cc2N2CCC3(CC2)CC3)nc(N2CCC(F)(F)CC2)n1 [Amorphous Compound A]
[1]; [10]
  AUCt: 237 ± 68 µM·h
  Cmax: 6.9 ± 1.3 µM
  Tmax: 6.7 ± 2.3 h
[2]; listed as Amorphous Cmp A
  IDR: 36.2 ug/min*cm^2

## Cc1cc(NC(=O)c2ccc(NS(=O)(=O)CCO)cc2N2CCC3(CC2)CC3)nc(N2CCC(F)(F)CC2)n1 [Anhydrous Compound A Form 3]
[3]; pH 1.6 (end of experiment), solubility from 2 hr time point
  Sol (pH), FaSSGF: 99.3 μg/mL
[3]; pH 6.5 (end of experiment), solubility from 2 hr time point
  Sol (pH), FaSSIF: 87 μg/mL
[3]; pH 5.0 (end of experiment), solubility from 2 hr time point
  Sol (pH), FeSSIF: 352 (5.0)* μg/mL
[3]; Water, pH 8.0 (end of experiment), solubility from 2 hr time point
  Sol (pH), Water: 5.4 (8.0)* μg/mL
[4]
  DVS weight gain: about 1.5%
[1]; [11]
  AUCt: 69 ± 6 µM·h
  Cmax: 2.3 ± 0.2 µM
[1]; [12]
  Tmax: 4.7 ± 1.2 h

## Cc1cc(NC(=O)c2ccc(NS(=O)(=O)CCO)cc2N2CCC3(CC2)CC3)nc(N2CCC(F)(F)CC2)n1 [Anhydrous Compound A Form 5]
[4]
  DVS observation in words: rehydrated to the Compound A-Variable Hydrate Form 2

## Cc1cc(NC(=O)c2ccc(NS(=O)(=O)CCO)cc2N2CCC3(CC2)CC3)nc(N2CCC(F)(F)CC2)n1 [Compound A, 2-(6-azaspiro[2.5]octan-6-yl)-N-[2-(4,4-difluoropiperidin-1-yl)-6-methylpyrimidin-4-yl]-4-[(2-hydroxyethanesulfonyl)amino]benzamide]
[5]
  ATPase activity inhibited (MT-ATPase vs basal ATPase): inhibits MT-ATPase activity and not basal ATPase activity
[6]
  solubility: ~18 mg/mL (≈ 31.9 mM)
[7]; read-out: weakly acidic pKa
  pKa: 7.3
[7]; read-out: weakly basic pKa
  pKa: 3.9

## Cc1cc(NC(=O)c2ccc(NS(=O)(=O)CCO)cc2N2CCC3(CC2)CC3)nc(N2CCC(F)(F)CC2)n1.Cl [Compound A-HCl Form 1]
[3]
  powder dissolution compared with other forms, in words: faster dissolution than the Compound A-Variable-Hydrate Form 2, or Compound A-Anhydrous Form 3, but a slower dissolution than the Amorphous Compound A
  Sol (pH), Water (first value pair after FeSSIF): 7.9 μg/mL
  Sol (pH), Water (second value pair after FeSSIF): 13 μg/mL
[3]; [13]
  Sol (pH), FaSSGF: 6.3 ± 0.5 μg/mL
[3]; [14]
  Sol (pH), FaSSIF: 62.7 ± 9.0 μg/mL
[3]; [15]
  Sol (pH), FeSSIF: 437.1 ± 16.3 (5.0)^ μg/mL
[8]; pH 6.5
  Sol (pH), FaSSIF: 104.2 (6.5) μg/mL
[4]
  DVS weight gain: less than 0.5%
[6]
  solubility: ~8 mg/mL
[1]; dog, PO 10 mg/kg
  exposure compared to Amorphous Compound A, in words: lower exposure than the Amorphous Compound A form
  increase in exposure compared to Compound A-Anhydrous Form 3: ~2 fold
[1]; [16]
  AUC(0-t): 181 ± 79 µM·h
  Cmax: 4.7 ± 1.4 µM
[1]; [12]
  Tmax: 6 h
[2]
  IDR: 2.14 ug/min*cm^2

## Cc1cc(NC(=O)c2ccc(NS(=O)(=O)CCO)cc2N2CCC3(CC2)CC3)nc(N2CCC(F)(F)CC2)n1 [Compound A-MsA Form 1]
[8]; listed as Mesylate (A-MsA or A-MSA) Salt Form 1
  kinetic solubility, dissolution rate and supersaturation in FaSSIF, in words: better than the HCl Salt Form 1
[8]; pH 6.5, listed as Cmp A-MSA Form 1
  Sol (pH), FaSSIF: 133.0 (6.5) μg/mL
[4]; listed as Crystalline Compound A-MsA Form 1
  DVS weight gain: about 1.2%
[4]; listed as crystalline Compound A-MsA Salt Form 1
  DVS weight gain: less than 1.2%

## Cc1cc(NC(=O)c2ccc(NS(=O)(=O)CCO)cc2N2CCC3(CC2)CC3)nc(N2CCC(F)(F)CC2)n1 [Compound A-Sulfate Form 1]
[4]; listed as Crystalline Compound A-Sulfate Form 1
  DVS observation in words: deliquesces at 90% RH

## Cc1cc(NC(=O)c2ccc(NS(=O)(=O)CCO)cc2N2CCC3(CC2)CC3)nc(N2CCC(F)(F)CC2)n1 [Compound A-TsA Form 4]
[8]; listed as Tosylate (A-TsA or A-TSA) Salt Form 4
  kinetic solubility, dissolution rate and supersaturation in FaSSIF, in words: better than the Mesylate (A-MsA or A-MSA) Salt Form 1
[8]; pH 6.5, listed as Cmp A-TSA Form 4
  Sol (pH), FaSSIF: 160.6 (6.5) μg/mL

## Cc1cc(NC(=O)c2ccc(NS(=O)(=O)CCO)cc2N2CCC3(CC2)CC3)nc(N2CCC(F)(F)CC2)n1 [Compound A-Variable Hydrate Form 2]
[3]; [13]
  Sol (pH), FaSSGF: 20 μg/mL
[3]; [14]
  Sol (pH), FaSSIF: 10.6 μg/mL
[3]; [15]
  Sol (pH), FeSSIF: 144.5(5.0)^ μg/mL
[3]
  Sol (pH), Water (first value pair after FeSSIF): 243 μg/mL
  Sol (pH), Water (second value pair after FeSSIF): 23 μg/mL
[4]
  DVS weight gain: about 3.4%
[2]; listed as Cmp A-Variable Hydrate Form 2
  IDR: 0.42 ug/min*cm^2
[9]
  solubility, in words: very low solubility
